Data as given in paper PMC3790851, “Improved Mass Spectrometry Assay For Plasma Hepcidin: Detection and Characterization of a Novel Hepcidin Isoform” (PLoS ONE, 2013).

Legend:
[1] = Effect of solvent of hepcidin-25^+40 on loss of peptide and hepcidin-25 value assignment; type: physicochemical
Protocol: Heavy hepcidin-25^+40 (hepcidin-25^+40 Da; DTHF(^13C9,^15N)P(^13C5,^15N)I(^13C6,^15N)CI(^13C6,^15N) F(^13C9,^15N)CCG(^15N)CCHRSKCGMCCKT disulfide bridged) was obtained from Peptides International (Table 1). Note that due to an isotope content of 98% the actual mass is 1 Da less than the theoretical mass of this peptide. Freeze dried hepcidin-25^+40 was dissolved in H2O in accordance with the manual. An 0.1 nmol/L solution of hepcidin-25^+40 was aliquoted in 12 µL volumes in 200 µL polypropylene tubes and stored at −80°C until use.
As quantification of native hepcidin in a sample is related to the known concentration of the spiked internal standard, the absolute levels of measured hepcidin are highly dependent on the value assignment of the used internal standard. One determining factor concerns proper dissolvent of the lyophilized peptide and whether or not a substantial amount of the internal standard is lost by aggregation or sticking to laboratory plastics during its preparation. Therefore, we compared the effects of three different solvents to prepare hepcidin-25^+40 stock solutions on the measured hepcidin-25 concentration of a series of spiked blank serum samples to which known hepcidin-25 concentrations were added. […] This finding implicates that use of 5% phosphoric acid leads to loss of about 50% of the peptide, while this seems to be the case for about 15% of the peptide when water is used. […] Therefore, 20% acetonitrile was implemented as solvent for the internal standard in our standard operating procedure, which was used throughout the remainder of this study.
Figure 1 Effect on the solvent of hepcidin-25^+40 on hepcidin-25 linearity and value assignment. […] Linearity of measured hepcidin-25 was determined by the formulas: Y = 1.822X+0.097 (5% phosphoric acid); Y = 1.119X+0.494 (water); Y = 0.964X+0.069 (20% acn).

[2] = parameters: method as in PMID 22222553; conditions: serum, 12 healthy controls; cited from earlier work
[3] = serum, healthy controls; cited from earlier work
Description: We observed no differences between the various anticoagulants used. We observed, however, a small non significant decrease of hepcidin-25 upon freezing (e.g. for heparin samples at 7 days: total intensive care and control (n = 15): 95% (CV 8%) relative to fresh samples, Table S3). […] However, it should be noted that the reproducibility of the measurements of the smaller isoforms at low concentrations is low, especially the measurements of hepcidin-20 in EDTA plasma samples (Table 2, Table S3). Thus, hepcidin measurements by WCX-TOF MS are no ...

[4] = at least; cited from earlier work
Protocol: We conclude that hepcidin-25 results are not changed during 2 years of storage at −80°C, except for a possible small decrease upon freezing. However, after 2 years storage at −80°C, hepcidin results become less precise and individual measurements might become less reliable. Average results for a population may not be affected, but existing differences in hepcidin levels between groups, or correlations of hepcidin with other parameters might be more difficult to assess.

loss of peptide on dissolution in 5% phosphoric acid ([1]; inferred from false high measured hepcidin-25 in spiked blank serum)	loss of peptide on dissolution in water ([1]; inferred from measured hepcidin-25 in spiked blank serum)	measured to nominal hepcidin-25 ratio, internal standard in 20% acetonitril ([1]; spiked blank serum)	Substance	stability at 4°C [2] [days]	stability at -20°C [3] [days]	stability at -80°C [4]
about 50%	about 15%	near 1∶1 ratio	DTHF(^13C9,^15N)P(^13C5,^15N)I(^13C6,^15N)CI(^13C6,^15N) F(^13C9,^15N)CCG(^15N)CCHRSKCGMCCKT disulfide bridged (disulfide) [Hepcidin-25^+40, novel custom made heavy hepcidin-25 isotope, disulfide bridged, internal standard]	–	–	–
–	–	–	hepcidin: hepcidin as measured in plasma or serum, isoform not specified at the place	6	≥ 42	6–8 months
